Source: ChEMBL document CHEMBL1641539 (Bioorg Med Chem Lett, 2011)

What was measured:
[1] = target: Ephrin type-B receptor 2 (Homo sapiens) (UniProt P29323); assay: Inhibition of human EphB2 at 10 uM after 60 mins by TR-FRET assay; settings: values are per cent of control
[2] = target: Vascular endothelial growth factor receptor 1 (Homo sapiens) (UniProt P17948); assay: Inhibition of human Flt1 at 10 uM after 60 mins by TR-FRET assay; settings: values are per cent of control
[3] = target: Serine/threonine-protein kinase mTOR (Homo sapiens) (UniProt P42345); assay: Inhibition of human mTOR at 10 uM after 60 mins by TR-FRET assay; settings: values are per cent of control
[4] = target: mTOR/FKBP12A/FKBP12B (Homo sapiens) (UniProt P62942+P68106+P42345); assay: Inhibition of human mTOR/FKBP12 at 10 uM after 60 mins by TR-FRET assay; type: protein-complex assay; settings: values are per cent of control
[5] = target: Mitogen-activated protein kinase 13 (Homo sapiens) (UniProt O15264); assay: Inhibition of human SAPK4 at 10 uM after 60 mins by TR-FRET assay; settings: values are per cent of control
[6] = target: Ribosomal protein S6 kinase alpha-6 (Homo sapiens) (UniProt Q9UK32); assay: Inhibition of human Rsk4 at 10 uM after 60 mins by TR-FRET assay; settings: values are per cent of control
[7] = target: Insulin receptor (Homo sapiens) (UniProt P06213); assay: Inhibition of human IR at 10 uM after 60 mins by TR-FRET assay; values are per cent of control
[8] = target: Mitogen-activated protein kinase kinase kinase kinase 2 (Homo sapiens) (UniProt Q12851); assay: Inhibition of human GCK at 10 uM after 60 mins by TR-FRET assay; values are per cent of control
Homo sapiens = organism: Homo sapiens; assay: Inhibition of human PKA at 10 uM after 60 mins by TR-FRET assay; values are per cent of control
[9] = target: Muscle, skeletal receptor tyrosine-protein kinase (Homo sapiens) (UniProt O15146); assay: Inhibition of human MuSK at 10 uM after 60 mins by TR-FRET assay; values are per cent of control
[10] = target: Rho-associated protein kinase 2 (Rattus norvegicus) (UniProt Q62868); assay: Inhibition of rat ROCK-2 at 10 uM after 60 mins by TR-FRET assay; values are per cent of control
[11] = target: Serine/threonine-protein kinase Sgk3 (Homo sapiens) (UniProt Q96BR1); assay: Inhibition of human SGK3 at 10 uM after 60 mins by TR-FRET assay; values are per cent of control
[12] = target: Serine/threonine-protein kinase TAO3 (Homo sapiens) (UniProt Q9H2K8); assay: Inhibition of human TAO3 at 10 uM after 60 mins by TR-FRET assay; values are per cent of control
[13] = target: Serine/threonine-protein kinase TBK1 (Homo sapiens) (UniProt Q9UHD2); assay: Inhibition of human TBK1 at 10 uM after 60 mins by TR-FRET assay; values are per cent of control
[14] = target: BDNF/NT-3 growth factors receptor (Homo sapiens) (UniProt Q16620); assay: Inhibition of human TrkB at 10 uM after 60 mins by TR-FRET assay; values are per cent of control
[15] = target: Serine/threonine-protein kinase VRK2 (Homo sapiens) (UniProt Q86Y07); assay: Inhibition of human VRK2 at 10 uM after 60 mins by TR-FRET assay; values are per cent of control
[16] = target: Serine/threonine-protein kinase PAK 3 (Homo sapiens) (UniProt O75914); assay: Inhibition of human PAK3 at 10 uM after 60 mins by TR-FRET assay; values are per cent of control
[17] = target: Serine/threonine-protein kinase PAK 5 (Homo sapiens) (UniProt Q9P286); assay: Inhibition of human PAK5 at 10 uM after 60 mins by TR-FRET assay; values are per cent of control
[18] = target: Homeodomain-interacting protein kinase 1 (Homo sapiens) (UniProt Q86Z02); assay: Inhibition of human HIPK1 at 10 uM after 60 mins by TR-FRET assay; values are per cent of control
[19] = target: Mast/stem cell growth factor receptor Kit (Homo sapiens) (UniProt P10721); assay: Inhibition of human c-Kit at 10 uM after 60 mins by TR-FRET assay; values are per cent of control
[20] = target: Death-associated protein kinase 1 (Homo sapiens) (UniProt P53355); assay: Inhibition of human DAPK1 at 10 uM after 60 mins by TR-FRET assay; values are per cent of control
[21] = target: Serine/threonine-protein kinase D1 (Homo sapiens) (UniProt Q15139); assay: Inhibition of human PKCmu at 10 uM after 60 mins by TR-FRET assay; values are per cent of control
[22] = target: RAC-gamma serine/threonine-protein kinase (Homo sapiens) (UniProt Q9Y243); assay: Inhibition of human PKBgamma at 10 uM after 60 mins by TR-FRET assay; values are per cent of control
[23] = target: Glycogen synthase kinase-3 beta (Homo sapiens) (UniProt P49841); assay: Inhibition of human GSK3-beta at 10 uM after 60 mins by TR-FRET assay; values are per cent of control
[24] = target: Casein kinase I isoform gamma-2 (Homo sapiens) (UniProt P78368); assay: Inhibition of human CK1gamma2 at 10 uM after 60 mins by TR-FRET assay; values are per cent of control
[25] = target: CDK6/cyclin D3 (Homo sapiens) (UniProt P30281+Q00534); assay: Inhibition of human CDK6/cyclinD3 at 10 uM after 60 mins by TR-FRET assay; values are per cent of control
[26] = test system: Fibroblast growth factor receptor 2 (Homo sapiens), P21802 [N549H]; assay: Inhibition of human FGFR2 N549H mutant at 10 uM after 60 mins by TR-FRET assay; values are per cent of control
[27] = test system: Mast/stem cell growth factor receptor Kit (Homo sapiens), P10721 [V560G]; assay: Inhibition of human c-Kit V560G mutant at 10 uM after 60 mins by TR-FRET assay; values are per cent of control

Sequence of Muscle, skeletal receptor tyrosine-protein kinase (Homo sapiens) (O15146 whole entry): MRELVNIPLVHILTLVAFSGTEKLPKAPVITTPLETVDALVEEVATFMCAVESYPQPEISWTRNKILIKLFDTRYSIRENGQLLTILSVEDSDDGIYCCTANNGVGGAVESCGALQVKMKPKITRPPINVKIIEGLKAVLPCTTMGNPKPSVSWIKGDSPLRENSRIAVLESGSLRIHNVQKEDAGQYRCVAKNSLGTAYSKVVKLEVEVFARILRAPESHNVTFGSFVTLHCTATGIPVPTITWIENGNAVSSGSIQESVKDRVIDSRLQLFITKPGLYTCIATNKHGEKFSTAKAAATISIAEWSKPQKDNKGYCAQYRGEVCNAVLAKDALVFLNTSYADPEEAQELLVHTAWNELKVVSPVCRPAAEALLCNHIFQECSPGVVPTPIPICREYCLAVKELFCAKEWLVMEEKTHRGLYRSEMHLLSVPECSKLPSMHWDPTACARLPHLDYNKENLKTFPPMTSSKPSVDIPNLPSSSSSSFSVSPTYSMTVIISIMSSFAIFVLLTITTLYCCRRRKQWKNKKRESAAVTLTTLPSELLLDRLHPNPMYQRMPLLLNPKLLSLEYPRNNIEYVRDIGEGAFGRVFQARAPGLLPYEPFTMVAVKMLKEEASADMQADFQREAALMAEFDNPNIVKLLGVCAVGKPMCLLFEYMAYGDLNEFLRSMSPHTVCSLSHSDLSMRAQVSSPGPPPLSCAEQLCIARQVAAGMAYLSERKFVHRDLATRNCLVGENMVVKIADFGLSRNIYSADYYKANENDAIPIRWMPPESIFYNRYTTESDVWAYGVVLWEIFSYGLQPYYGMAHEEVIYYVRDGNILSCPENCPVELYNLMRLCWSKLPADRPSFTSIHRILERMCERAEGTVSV
Sequence of Serine/threonine-protein kinase D1 (Homo sapiens) (Q15139 whole entry): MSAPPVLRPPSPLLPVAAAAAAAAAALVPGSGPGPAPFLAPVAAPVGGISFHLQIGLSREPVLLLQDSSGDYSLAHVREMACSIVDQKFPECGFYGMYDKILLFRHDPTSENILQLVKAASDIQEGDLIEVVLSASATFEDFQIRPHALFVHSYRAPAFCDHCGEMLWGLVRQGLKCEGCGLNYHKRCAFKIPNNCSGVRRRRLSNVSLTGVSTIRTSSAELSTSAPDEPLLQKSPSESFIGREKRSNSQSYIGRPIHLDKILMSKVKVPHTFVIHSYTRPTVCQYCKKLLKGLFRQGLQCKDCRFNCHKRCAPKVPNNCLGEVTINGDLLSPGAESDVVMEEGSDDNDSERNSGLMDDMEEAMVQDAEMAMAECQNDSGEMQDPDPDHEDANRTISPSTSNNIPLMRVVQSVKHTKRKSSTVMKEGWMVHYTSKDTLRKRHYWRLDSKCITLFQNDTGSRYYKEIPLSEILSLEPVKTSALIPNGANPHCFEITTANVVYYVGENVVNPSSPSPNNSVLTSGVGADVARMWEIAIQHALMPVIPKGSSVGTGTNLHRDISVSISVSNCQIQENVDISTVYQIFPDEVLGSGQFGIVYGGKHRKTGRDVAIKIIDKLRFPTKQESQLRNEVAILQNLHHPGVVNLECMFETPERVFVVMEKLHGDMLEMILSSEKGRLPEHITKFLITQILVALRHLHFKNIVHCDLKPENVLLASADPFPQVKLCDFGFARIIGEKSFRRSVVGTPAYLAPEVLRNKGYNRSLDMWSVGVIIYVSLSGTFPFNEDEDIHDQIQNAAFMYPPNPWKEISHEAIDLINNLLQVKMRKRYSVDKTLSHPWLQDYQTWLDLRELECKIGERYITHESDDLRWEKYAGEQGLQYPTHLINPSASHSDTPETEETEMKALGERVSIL
Sequence of Mitogen-activated protein kinase 13 (Homo sapiens) (O15264 whole entry): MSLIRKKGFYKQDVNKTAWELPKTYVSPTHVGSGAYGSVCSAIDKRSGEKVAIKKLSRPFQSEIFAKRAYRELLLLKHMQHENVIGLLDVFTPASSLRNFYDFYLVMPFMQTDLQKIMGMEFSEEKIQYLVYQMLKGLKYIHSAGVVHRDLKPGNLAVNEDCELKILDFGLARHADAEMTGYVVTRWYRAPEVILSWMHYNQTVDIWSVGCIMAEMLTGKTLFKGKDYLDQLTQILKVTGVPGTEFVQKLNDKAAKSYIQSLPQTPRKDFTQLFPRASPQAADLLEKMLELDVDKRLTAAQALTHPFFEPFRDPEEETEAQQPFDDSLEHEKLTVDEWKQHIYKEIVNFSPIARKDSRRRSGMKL
Sequence of Serine/threonine-protein kinase VRK2 (Homo sapiens) (Q86Y07 whole entry): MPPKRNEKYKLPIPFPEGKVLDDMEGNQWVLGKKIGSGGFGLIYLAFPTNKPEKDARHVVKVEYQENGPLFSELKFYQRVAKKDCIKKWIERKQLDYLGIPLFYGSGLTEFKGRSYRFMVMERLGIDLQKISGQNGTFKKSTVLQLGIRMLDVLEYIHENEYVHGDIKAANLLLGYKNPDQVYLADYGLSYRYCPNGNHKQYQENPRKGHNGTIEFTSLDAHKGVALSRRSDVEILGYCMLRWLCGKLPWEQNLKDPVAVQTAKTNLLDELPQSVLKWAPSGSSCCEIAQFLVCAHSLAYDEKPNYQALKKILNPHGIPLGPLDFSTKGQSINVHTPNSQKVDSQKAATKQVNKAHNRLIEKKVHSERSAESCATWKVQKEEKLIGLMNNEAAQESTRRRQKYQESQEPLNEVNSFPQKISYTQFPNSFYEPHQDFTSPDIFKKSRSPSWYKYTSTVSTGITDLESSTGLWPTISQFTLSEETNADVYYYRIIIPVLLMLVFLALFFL
Sequence of Mast/stem cell growth factor receptor Kit (Homo sapiens) (P10721 whole entry): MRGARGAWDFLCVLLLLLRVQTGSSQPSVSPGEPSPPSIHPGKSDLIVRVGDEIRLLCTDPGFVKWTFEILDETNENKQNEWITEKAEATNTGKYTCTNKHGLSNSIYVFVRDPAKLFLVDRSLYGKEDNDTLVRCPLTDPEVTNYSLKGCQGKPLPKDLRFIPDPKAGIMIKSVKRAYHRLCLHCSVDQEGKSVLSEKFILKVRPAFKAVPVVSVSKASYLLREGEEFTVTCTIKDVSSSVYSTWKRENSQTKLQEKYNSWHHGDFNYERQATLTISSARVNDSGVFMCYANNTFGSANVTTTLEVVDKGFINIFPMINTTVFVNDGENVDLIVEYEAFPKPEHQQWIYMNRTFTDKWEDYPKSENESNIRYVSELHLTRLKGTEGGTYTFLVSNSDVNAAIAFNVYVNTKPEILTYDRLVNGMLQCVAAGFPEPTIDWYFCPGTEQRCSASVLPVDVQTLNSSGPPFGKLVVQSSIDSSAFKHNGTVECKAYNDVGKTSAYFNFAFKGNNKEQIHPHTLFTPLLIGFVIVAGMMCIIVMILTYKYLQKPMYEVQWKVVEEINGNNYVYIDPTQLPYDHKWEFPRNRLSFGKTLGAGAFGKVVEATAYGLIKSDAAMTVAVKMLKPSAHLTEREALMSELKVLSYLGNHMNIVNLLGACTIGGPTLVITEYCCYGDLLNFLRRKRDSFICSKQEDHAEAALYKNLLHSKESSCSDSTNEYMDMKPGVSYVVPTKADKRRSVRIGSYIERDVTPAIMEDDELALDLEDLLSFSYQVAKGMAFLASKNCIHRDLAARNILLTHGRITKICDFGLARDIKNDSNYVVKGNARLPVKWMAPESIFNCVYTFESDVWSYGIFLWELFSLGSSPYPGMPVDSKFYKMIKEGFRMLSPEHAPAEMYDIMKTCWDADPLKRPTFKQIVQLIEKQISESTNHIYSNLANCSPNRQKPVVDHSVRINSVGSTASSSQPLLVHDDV
Sequence of Serine/threonine-protein kinase PAK 3 (Homo sapiens) (O75914 whole entry, looked up): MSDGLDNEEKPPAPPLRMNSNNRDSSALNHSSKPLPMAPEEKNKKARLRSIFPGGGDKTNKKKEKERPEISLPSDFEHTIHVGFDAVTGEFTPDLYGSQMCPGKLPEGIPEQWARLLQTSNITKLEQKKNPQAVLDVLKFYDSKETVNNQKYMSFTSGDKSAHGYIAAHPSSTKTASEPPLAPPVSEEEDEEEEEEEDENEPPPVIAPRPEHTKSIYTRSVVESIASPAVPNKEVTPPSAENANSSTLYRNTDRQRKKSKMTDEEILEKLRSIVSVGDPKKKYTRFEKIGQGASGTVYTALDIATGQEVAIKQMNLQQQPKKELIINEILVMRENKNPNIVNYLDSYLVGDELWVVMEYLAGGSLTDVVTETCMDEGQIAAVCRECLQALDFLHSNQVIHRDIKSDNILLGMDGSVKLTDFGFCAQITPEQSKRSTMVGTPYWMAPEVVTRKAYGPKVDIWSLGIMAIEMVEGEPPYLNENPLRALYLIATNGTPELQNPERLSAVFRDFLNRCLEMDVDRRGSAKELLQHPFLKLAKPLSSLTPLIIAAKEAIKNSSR
Sequence of RAC-gamma serine/threonine-protein kinase (Homo sapiens) (Q9Y243 whole entry): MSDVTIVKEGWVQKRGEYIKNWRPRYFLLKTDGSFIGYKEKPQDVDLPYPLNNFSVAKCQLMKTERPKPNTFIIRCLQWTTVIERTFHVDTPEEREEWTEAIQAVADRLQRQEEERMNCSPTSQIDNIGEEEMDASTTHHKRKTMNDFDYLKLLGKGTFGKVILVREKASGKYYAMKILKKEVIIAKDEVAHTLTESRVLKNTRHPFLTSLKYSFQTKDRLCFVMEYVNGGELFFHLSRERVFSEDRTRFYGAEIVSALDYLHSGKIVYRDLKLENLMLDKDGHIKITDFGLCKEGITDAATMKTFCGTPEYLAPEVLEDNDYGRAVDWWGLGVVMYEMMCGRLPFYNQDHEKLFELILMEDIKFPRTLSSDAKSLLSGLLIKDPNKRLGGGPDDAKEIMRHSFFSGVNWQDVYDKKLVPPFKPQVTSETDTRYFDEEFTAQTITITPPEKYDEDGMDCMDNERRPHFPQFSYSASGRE
Sequence of mTOR/FKBP12A/FKBP12B (Homo sapiens) (P62942 2-108 limits assumed, other chains not shown): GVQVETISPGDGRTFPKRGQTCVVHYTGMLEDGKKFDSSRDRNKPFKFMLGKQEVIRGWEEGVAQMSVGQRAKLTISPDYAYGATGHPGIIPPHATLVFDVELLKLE
Sequence of mTOR/FKBP12A/FKBP12B (Homo sapiens) (P68106 whole entry partner, other chains not shown): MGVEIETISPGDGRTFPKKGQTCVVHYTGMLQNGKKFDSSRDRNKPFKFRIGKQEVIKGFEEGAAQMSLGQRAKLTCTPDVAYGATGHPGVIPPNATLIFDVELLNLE

## S=c1[nH]nc(-c2ccncc2)n1-c1ccc2ccccc2c1
[1]
  residual activity: 105%
[2]
  residual activity: 107%
[3]
  residual activity: 98%
[4]
  residual activity: 107%
[5]
  residual activity: 111%
[6]
  residual activity: 109%
[7]
  residual activity: 106%
[8]
  residual activity: 103%
Homo sapiens
  residual activity: 93%
[9]
  residual activity: 114%
[10]
  residual activity: 101%
[11]
  residual activity: 102%
[12]
  residual activity: 91%
[13]
  residual activity: 108%
[14]
  residual activity: 114%
[15]
  residual activity: 122%
[16]
  residual activity: 99%
[17]
  residual activity: 101%
[18]
  residual activity: 110%
[19]
  residual activity: 108%
[20]
  residual activity: 108%
[21]
  residual activity: 104%
[22]
  residual activity: 110%
[23]
  residual activity: 90%
[24]
  residual activity: 99%
[25]
  residual activity: 102%
[26]
  residual activity: 91%
[27]
  residual activity: 102%
